Results from ChEMBL document CHEMBL4308841, “Synthesis, in vitro antiproliferative activity, and kinase inhibitory effects of pyrazole-containing diarylureas and diarylamides” (Eur J Med Chem, 2018).

Key:
SF-539 = assay: Growth inhibition of human SF539 cells assessed as cell growth at 0.1 uM incubated for 48 hrs by sulforhodamine B assay relative to control; assay type: functional; conditions: SF-539, 48 h, read-out: Activity
OVCAR-4 [1] = assay: Growth inhibition of human OVCAR4 cells assessed as cell growth at 100 uM incubated for 48 hrs by sulforhodamine B assay relative to control; assay type: functional; conditions: OVCAR-4, 48 h, read-out: Activity
Hs-578T = assay: Growth inhibition of human Hs578T cells assessed as cell growth at 100 uM incubated for 48 hrs by sulforhodamine B assay relative to control; assay type: functional; conditions: read-out: Activity
MDA-MB-231 = assay: Growth inhibition of human MDA-MB-231 cells assessed as cell growth at 0.01 uM incubated for 48 hrs by sulforhodamine B assay relative to control; assay type: functional; conditions: MDA-MB-231, 48 h, read-out: Activity
SF-268 [2] = assay: Growth inhibition of human SF268 cells assessed as cell growth at 100 uM incubated for 48 hrs by sulforhodamine B assay relative to control; assay type: functional; conditions: SF-268, 48 h, read-out: Activity
UO-31 [3] = assay: Growth inhibition of human UO31 cells assessed as cell growth at 1 uM incubated for 48 hrs by sulforhodamine B assay relative to control; assay type: functional; conditions: UO-31, 48 h, read-out: Activity
OVCAR-5 = assay: Growth inhibition of human OVCAR5 cells assessed as cell growth at 100 uM incubated for 48 hrs by sulforhodamine B assay relative to control; assay type: functional; conditions: OVCAR-5, 48 h, read-out: Activity
PC-3 = assay: Growth inhibition of human PC3 cells assessed as cell growth at 0.1 uM incubated for 48 hrs by sulforhodamine B assay relative to control; assay type: functional; conditions: PC-3, 48 h, read-out: Activity
UO-31 [4] = assay: Growth inhibition of human UO31 cells assessed as cell growth at 0.1 uM incubated for 48 hrs by sulforhodamine B assay relative to control; assay type: functional; conditions: UO-31, 48 h, read-out: Activity
CAKI-1 = assay: Growth inhibition of human Caki1 cells assessed as cell growth at 100 uM incubated for 48 hrs by sulforhodamine B assay relative to control; assay type: functional; conditions: CAKI-1, 48 h, read-out: Activity
SW-620 = assay: Growth inhibition of human SW620 cells incubated for 48 hrs by sulforhodamine B assay; assay type: functional, cell-based; conditions: SW-620, 48 h
OVCAR-4 [5] = assay: Growth inhibition of human OVCAR4 cells assessed as cell growth at 0.1 uM incubated for 48 hrs by sulforhodamine B assay relative to control; assay type: functional; conditions: OVCAR-4, 48 h, read-out: Activity
SF-268 [6] = assay: Growth inhibition of human SF268 cells assessed as cell growth at 1 uM incubated for 48 hrs by sulforhodamine B assay relative to control; assay type: functional; conditions: SF-268, 48 h, read-out: Activity
A549 = assay: Growth inhibition of human A549/ATCC cells assessed as cell growth at 100 uM incubated for 48 hrs by sulforhodamine B assay relative to control; assay type: functional; conditions: A549, 48 h, read-out: Activity
NCI-H322M = assay: Growth inhibition of human NCI-H322M cells assessed as cell growth at 0.01 uM incubated for 48 hrs by sulforhodamine B assay relative to control; assay type: functional; conditions: read-out: Activity
SK-OV-3 = assay: Growth inhibition of human SKOV3 cells assessed as cell growth at 0.1 uM incubated for 48 hrs by sulforhodamine B assay relative to control; assay type: functional; conditions: SK-OV-3, 48 h, read-out: Activity
SR = assay: Growth inhibition of human SR cells assessed as cell growth at 0.01 uM incubated for 48 hrs by sulforhodamine B assay relative to control; assay type: functional; conditions: read-out: Activity
SF-295 [7] = assay: Growth inhibition of human SF295 cells assessed as cell growth at 1 uM incubated for 48 hrs by sulforhodamine B assay relative to control; assay type: functional; conditions: SF-295, 48 h, read-out: Activity
LOX IMVI = assay: Growth inhibition of human LOXIMVI cells assessed as cell growth at 0.1 uM incubated for 48 hrs by sulforhodamine B assay relative to control; assay type: functional; conditions: read-out: Activity
U-251 = assay: Growth inhibition of human U251 cells assessed as cell growth at 0.01 uM incubated for 48 hrs by sulforhodamine B assay relative to control; assay type: functional; conditions: U-251, 48 h, read-out: Activity
OVCAR-8 = assay: Growth inhibition of human OVCAR8 cells assessed as cell growth at 1 uM incubated for 48 hrs by sulforhodamine B assay relative to control; assay type: functional; conditions: OVCAR-8, 48 h, read-out: Activity
SNB-75 = assay: Growth inhibition of human SNB75 cells incubated for 48 hrs by sulforhodamine B assay; assay type: functional, cell-based; conditions: SNB-75, 48 h
SK-MEL-2 = assay: Growth inhibition of human SK-MEL-2 cells assessed as cell growth at 100 uM incubated for 48 hrs by sulforhodamine B assay relative to control; assay type: functional; conditions: SK-MEL-2, 48 h, read-out: Activity
NCI-H226 = assay: Growth inhibition of human NCI-H226 cells incubated for 48 hrs by sulforhodamine B assay; assay type: functional, cell-based; conditions: NCI-H226, 48 h
MDA-MB-435 [8] = assay: Growth inhibition of human MDA-MB-435 cells assessed as cell growth at 100 uM incubated for 48 hrs by sulforhodamine B assay relative to control; assay type: functional; conditions: MDA-MB-435, 48 h, read-out: Activity
HCT-116 = assay: Growth inhibition of human HCT116 cells assessed as cell growth at 100 uM incubated for 48 hrs by sulforhodamine B assay relative to control; assay type: functional; conditions: HCT-116, 48 h, read-out: Activity
ACHN = assay: Growth inhibition of human ACHN cells assessed as cell growth at 1 uM incubated for 48 hrs by sulforhodamine B assay relative to control; assay type: functional; conditions: read-out: Activity
MDA-MB-435 [9] = assay: Growth inhibition of human MDA-MB-435 cells assessed as cell growth at 0.01 uM incubated for 48 hrs by sulforhodamine B assay relative to control; assay type: functional; conditions: MDA-MB-435, 48 h, read-out: Activity
M14 = assay: Growth inhibition of human M14 cells assessed as cell growth at 0.01 uM incubated for 48 hrs by sulforhodamine B assay relative to control; assay type: functional; conditions: M14, 48 h, read-out: Activity
SF-295 [10] = assay: Growth inhibition of human SF295 cells assessed as cell growth at 0.1 uM incubated for 48 hrs by sulforhodamine B assay relative to control; assay type: functional; conditions: SF-295, 48 h, read-out: Activity
SF-295 [11] = assay: Growth inhibition of human SF295 cells incubated for 48 hrs by sulforhodamine B assay; assay type: functional, cell-based; conditions: SF-295, 48 h
[12] = read-out: LC50 (the source's name)
[13] = read-out: pLC50 (the source's name) (converted)

Compound: COc1cc(Cl)cc(-c2nn(-c3cccc(NC(=O)Nc4ccc(Cl)c(C(F)(F)F)c4)c3)cc2-c2ccncc2)c1
- growth at 0.1 µM (SF-539): 91%
- growth at 100 µM (OVCAR-4 [1]): -16%
- growth at 100 µM (Hs-578T): -6%
- growth at 0.01 µM (MDA-MB-231): 93%
- growth at 100 µM (SF-268 [2]): -58%
- growth at 1 µM (UO-31 [3]): 64%
- growth at 100 µM (OVCAR-5): -89%
- growth at 0.1 µM (PC-3): 91%
- growth at 0.1 µM (UO-31 [4]): 55%
- growth at 100 µM (CAKI-1): -40%
- GI50 (SW-620; read-out: GI50): 1.51 µM
- LC50 (SW-620; read-out: LC50): 5.78 µM
- TGI (SW-620; read-out: TGI): 10.5 µM
- GI50 (SW-620; read-out: pGI50 (converted)): 1.62 µM
- LC50 (SW-620; read-out: pLC50 (converted)): 57.5 µM
- TGI (SW-620; read-out: pTGI (converted)): 10.5 µM
- growth at 0.1 µM (OVCAR-4 [5]): 97%
- growth at 1 µM (SF-268 [6]): 83%
- growth at 100 µM (A549): -76%
- growth at 0.01 µM (NCI-H322M): 96%
- growth at 0.1 µM (SK-OV-3): 100%
- growth at 0.01 µM (SR): 95%
- growth at 1 µM (SF-295 [7]): 31%
- growth at 0.1 µM (LOX IMVI): 97%
- growth at 0.01 µM (U-251): 98%
- growth at 1 µM (OVCAR-8): 43%
- GI50 (SNB-75; read-out: GI50): 1.77 µM
- CC50 (SNB-75; [12]): > 100 µM
- TGI (SNB-75; read-out: TGI): 11.1 µM
- GI50 (SNB-75; read-out: pGI50 (converted)): 1.78 µM
- CC50 (SNB-75; [13]): > 100 µM
- TGI (SNB-75; read-out: pTGI (converted)): 11.2 µM
- growth at 100 µM (SK-MEL-2): -85%
- GI50 (NCI-H226; read-out: GI50): 2.5 µM
- LC50 (NCI-H226; read-out: LC50): > 100 µM
- TGI (NCI-H226; read-out: TGI): 14.7 µM
- GI50 (NCI-H226; read-out: pGI50 (converted)): 2.51 µM
- LC50 (NCI-H226; read-out: pLC50 (converted)): > 100 µM
- TGI (NCI-H226; read-out: pTGI (converted)): 14.8 µM
- growth at 100 µM (MDA-MB-435 [8]): -40%
- growth at 100 µM (HCT-116): -94%
- growth at 1 µM (ACHN): 45%
- growth at 0.01 µM (MDA-MB-435 [9]): 95%
- growth at 0.01 µM (M14): 97%
- growth at 0.1 µM (SF-295 [10]): 98%
- GI50 (SF-295 [11]; read-out: GI50): 0.455 µM
- CC50 (SF-295 [11]; [12]): 5.15 µM
- TGI (SF-295 [11]; read-out: TGI): 20 µM
- GI50 (SF-295 [11]; read-out: pGI50 (converted)): 0.468 µM
- CC50 (SF-295 [11]; [13]): 6.17 µM
- TGI (SF-295 [11]; read-out: pTGI (converted)): 2 µM
